Experimental data from ChEMBL document CHEMBL3608274, “Design and synthesis of constrained analogs of LCRF-0004 as potent RON tyrosine kinase inhibitors” (Bioorg Med Chem Lett, 2015).

Key:
[1] = target: Macrophage-stimulating protein receptor (Homo sapiens, UniProt Q04912); experiment: Inhibition of human RON
[2] = target: Hepatocyte growth factor receptor (Homo sapiens, UniProt P08581); experiment: Inhibition of human c-Met
Hepatocyte growth factor receptor, sequence (P08581 whole entry): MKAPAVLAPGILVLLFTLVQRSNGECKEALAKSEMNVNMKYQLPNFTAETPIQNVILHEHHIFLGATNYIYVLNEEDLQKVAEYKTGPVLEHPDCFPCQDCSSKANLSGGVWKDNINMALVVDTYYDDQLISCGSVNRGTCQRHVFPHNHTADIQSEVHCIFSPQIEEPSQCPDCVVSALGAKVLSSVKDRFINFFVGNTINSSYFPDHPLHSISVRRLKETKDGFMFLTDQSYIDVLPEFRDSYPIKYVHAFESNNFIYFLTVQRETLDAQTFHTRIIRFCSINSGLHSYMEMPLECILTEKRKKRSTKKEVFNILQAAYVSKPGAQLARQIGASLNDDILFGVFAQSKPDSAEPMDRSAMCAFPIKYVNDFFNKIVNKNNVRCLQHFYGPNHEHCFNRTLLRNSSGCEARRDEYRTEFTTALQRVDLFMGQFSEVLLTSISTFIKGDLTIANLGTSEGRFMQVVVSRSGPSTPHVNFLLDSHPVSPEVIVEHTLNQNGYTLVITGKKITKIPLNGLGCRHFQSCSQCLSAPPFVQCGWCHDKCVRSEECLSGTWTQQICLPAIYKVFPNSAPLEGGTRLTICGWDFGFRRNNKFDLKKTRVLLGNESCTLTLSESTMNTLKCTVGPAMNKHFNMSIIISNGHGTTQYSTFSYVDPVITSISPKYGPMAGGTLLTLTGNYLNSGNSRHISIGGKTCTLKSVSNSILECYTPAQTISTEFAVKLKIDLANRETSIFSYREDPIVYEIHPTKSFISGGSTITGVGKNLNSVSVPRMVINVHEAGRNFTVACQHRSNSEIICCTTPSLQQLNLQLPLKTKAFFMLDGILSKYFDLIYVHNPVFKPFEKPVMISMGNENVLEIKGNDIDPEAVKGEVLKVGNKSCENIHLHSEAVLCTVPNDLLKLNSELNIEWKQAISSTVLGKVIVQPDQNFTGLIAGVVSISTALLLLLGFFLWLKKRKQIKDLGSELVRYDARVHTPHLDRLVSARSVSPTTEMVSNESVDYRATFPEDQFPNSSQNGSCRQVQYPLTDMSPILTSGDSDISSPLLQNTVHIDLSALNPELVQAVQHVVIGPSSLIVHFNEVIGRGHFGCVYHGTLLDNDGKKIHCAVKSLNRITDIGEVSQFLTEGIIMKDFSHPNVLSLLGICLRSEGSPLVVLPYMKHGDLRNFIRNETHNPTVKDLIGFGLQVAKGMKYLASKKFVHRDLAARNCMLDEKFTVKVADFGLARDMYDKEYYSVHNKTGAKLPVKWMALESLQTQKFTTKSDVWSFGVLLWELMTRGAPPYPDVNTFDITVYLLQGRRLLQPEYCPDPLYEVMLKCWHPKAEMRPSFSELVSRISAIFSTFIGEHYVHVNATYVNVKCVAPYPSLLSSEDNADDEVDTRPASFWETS

Macrophage-stimulating protein receptor, sequence (Q04912 25-304 limits assumed): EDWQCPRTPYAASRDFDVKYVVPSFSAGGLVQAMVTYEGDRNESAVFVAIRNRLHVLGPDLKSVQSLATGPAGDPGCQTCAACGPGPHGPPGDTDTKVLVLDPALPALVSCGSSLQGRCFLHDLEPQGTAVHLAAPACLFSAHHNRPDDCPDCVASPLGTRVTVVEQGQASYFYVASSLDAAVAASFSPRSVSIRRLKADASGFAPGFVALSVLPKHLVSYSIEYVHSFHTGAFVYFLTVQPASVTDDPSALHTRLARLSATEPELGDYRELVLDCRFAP
Macrophage-stimulating protein receptor, sequence (Q04912 310-1400 limits assumed): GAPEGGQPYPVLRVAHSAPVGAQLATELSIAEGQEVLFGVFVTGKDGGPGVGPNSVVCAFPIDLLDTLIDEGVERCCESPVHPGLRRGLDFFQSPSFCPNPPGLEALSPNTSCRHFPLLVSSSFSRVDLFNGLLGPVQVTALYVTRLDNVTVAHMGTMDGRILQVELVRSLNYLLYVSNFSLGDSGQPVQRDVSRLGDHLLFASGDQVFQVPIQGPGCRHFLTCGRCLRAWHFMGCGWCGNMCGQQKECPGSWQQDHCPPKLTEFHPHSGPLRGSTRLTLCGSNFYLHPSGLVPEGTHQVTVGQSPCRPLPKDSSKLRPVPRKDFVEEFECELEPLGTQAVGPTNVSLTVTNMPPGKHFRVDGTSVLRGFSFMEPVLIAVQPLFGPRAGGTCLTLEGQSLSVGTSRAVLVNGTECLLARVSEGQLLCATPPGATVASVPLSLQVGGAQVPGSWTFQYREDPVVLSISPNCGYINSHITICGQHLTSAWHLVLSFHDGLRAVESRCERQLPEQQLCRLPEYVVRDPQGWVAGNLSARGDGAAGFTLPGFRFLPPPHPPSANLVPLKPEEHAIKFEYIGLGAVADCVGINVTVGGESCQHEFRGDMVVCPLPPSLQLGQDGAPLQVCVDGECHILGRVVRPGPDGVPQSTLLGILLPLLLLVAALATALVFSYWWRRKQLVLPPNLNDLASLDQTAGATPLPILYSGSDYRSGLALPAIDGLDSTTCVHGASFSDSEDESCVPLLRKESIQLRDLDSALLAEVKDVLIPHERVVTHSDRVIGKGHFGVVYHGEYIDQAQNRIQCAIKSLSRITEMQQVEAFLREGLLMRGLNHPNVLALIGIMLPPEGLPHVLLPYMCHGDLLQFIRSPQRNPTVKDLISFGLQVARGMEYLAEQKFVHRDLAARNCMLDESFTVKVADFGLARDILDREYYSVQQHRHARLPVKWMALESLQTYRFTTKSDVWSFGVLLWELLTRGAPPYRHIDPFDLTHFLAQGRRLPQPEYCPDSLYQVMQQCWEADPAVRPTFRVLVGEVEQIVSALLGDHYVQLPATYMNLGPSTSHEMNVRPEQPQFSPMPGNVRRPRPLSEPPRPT

`Cn1cnc(-c2cc3nccc(Oc4ccc(NC(=O)c5cnn(-c6ccccc6)c5C(F)(F)F)cc4F)c3s2)c1` gave an IC50 [1] of 10 nM and an IC50 [2] of 12 nM.
